The values that follow are results of earlier work, collected in patent publication US20260206743A1, “PROPINEB NANOSUSPENSION” (priority 2022, published 2026).

Like-named read-outs stand apart in the source and are kept apart here. Bounds are passed on as bounds.

On to “poly [1,2-propylene bis(dithiocarbamate)] zinc [Propineb]”, for which, where the note is “20° C.”, the Solubility in water was below 10 µg/mL. Further, the “Solubility in organic solvent” value (DMF+DMSO mixture) is “exceed 200 g/L”, the “Solubility in organic solvent” value (dichloromethane) was below 100 µg/mL, the “Solubility in organic solvent” value (hexane) is below 100 µg/mL and the “Solubility in organic solvent” value (toluene) was below 100 µg/mL.
